Measurements published in patent US6958355B2, “Materials and methods for the treatment of diabetes, hyperlipidemia, hypercholesterolemia, and atherosclerosis” (ARYx Therapeutics, Inc., priority 2000, dated 2005).

System: NIDDM KK-A^y male mice
Assay: Activity on serum glucose and insulin levels in NIDDM KK-A^y male mice
Type: in vivo
Settings: percent reduction relative to pre-treatment values, 10 mg/kg orally, twice a day, 5 consecutive days, blood sampled 90 minutes after the last dose
Text: Representative compounds were chosen and evaluated for activity on serum glucose and insulin levels in non-insulin dependent diabetic mellitus (NIDDM) KK-A^y male mice. Post-treatment data for each group were transferred to a percentage of pretreatment values and unpaired Student's t test was used for comparison between vehicle and test substance treated groups. […] The results are presented in Table XXI and in FIGS. 19 and 20.
Activity in NIDDM KK-A^y male mice. Non-insulin dependent diabetic mellitus male mice, weighing 50+/−5 g (9-10 weeks of age) were used. […] The test compounds 105, 115, and 155, and the positive control compound troglitazone were suspended in a 1% carboxymethylcellulose preparation and were given orally at a dose of 10 mg/kg, twice a day, for 5 consecutive days. Blood sampling was performed before the first dose and then 90 minutes after the last dose. Serum glucose and insulin levels were measured.

## Cc1c(C)c2c(c(C)c1O)CCC(C)(COc1ccc(CC3SC(=O)NC3=O)cc1)O2 (centres unmarked) [Troglitazone, troglitazone]
  Serum Glucose (%): 35%
  Serum Insulin (%): 15%
